How the values were obtained:
Assay in all cases: KINOMEscan competition binding
Conditions in all cases: compound 10.0 µM
[1] = tested on: ABL1 (human), P00519 [M351T]
ABL2 (human) = ABL2 (human) (UniProt P42684)
AKT2 (human) = AKT2 (human) (UniProt P31751)
ALK (human) = ALK (human) (UniProt Q9UM73)
AURKC (human) = AURKC (human) (UniProt Q9UQB9)
CAMK2G (human) = CAMK2G (human) (UniProt Q13555)
CDK18 (human) = CDK18 (human) (UniProt Q07002)
CIT (human) = CIT (human) (UniProt O14578)
CLK1 (human) = CLK1 (human) (UniProt P49759)
CLK3 (human) = CLK3 (human) (UniProt P49761)
CSF1R (human) = CSF1R (human) (UniProt P07333)
DCLK2 (human) = DCLK2 (human) (UniProt Q8N568)
EPHA8 (human) = EPHA8 (human) (UniProt P29322)
EPHB3 (human) = EPHB3 (human) (UniProt P54753)
Sequence of EPHB3 (human) (P54753 whole entry, looked up): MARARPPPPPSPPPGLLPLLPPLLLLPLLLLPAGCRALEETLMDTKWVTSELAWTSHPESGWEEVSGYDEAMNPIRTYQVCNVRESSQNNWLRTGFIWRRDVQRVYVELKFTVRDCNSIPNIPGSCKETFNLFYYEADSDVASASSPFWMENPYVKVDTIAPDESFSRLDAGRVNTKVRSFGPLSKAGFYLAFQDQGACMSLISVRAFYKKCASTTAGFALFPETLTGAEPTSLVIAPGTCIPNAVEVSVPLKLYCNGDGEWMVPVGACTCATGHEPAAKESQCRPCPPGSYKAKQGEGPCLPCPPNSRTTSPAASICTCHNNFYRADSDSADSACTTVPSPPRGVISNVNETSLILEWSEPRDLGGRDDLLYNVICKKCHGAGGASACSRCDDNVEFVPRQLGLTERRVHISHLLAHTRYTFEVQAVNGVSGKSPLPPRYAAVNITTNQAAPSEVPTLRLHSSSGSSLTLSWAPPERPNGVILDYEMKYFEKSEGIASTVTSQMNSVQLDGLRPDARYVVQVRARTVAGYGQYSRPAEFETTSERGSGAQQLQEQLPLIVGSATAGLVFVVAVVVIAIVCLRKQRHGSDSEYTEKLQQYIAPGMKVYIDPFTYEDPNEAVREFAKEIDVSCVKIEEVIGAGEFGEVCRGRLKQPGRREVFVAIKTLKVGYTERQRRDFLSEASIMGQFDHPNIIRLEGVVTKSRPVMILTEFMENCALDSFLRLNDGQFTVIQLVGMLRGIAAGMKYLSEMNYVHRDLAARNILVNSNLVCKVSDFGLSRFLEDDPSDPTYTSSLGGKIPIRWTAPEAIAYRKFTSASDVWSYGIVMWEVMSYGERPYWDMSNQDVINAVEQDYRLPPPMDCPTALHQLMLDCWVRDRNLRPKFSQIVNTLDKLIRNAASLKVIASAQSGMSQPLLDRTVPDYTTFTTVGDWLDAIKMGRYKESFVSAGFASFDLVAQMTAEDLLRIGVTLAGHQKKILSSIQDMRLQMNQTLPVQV

[2] = tested on: FLT3 (human), P36888 [N841I]
FRK (human) = FRK (human) (UniProt P42685)
HIPK1 (human) = HIPK1 (human) (UniProt Q86Z02)
INSR (human) = INSR (human) (UniProt P06213)
Sequence of INSR (human) (P06213 whole entry, looked up): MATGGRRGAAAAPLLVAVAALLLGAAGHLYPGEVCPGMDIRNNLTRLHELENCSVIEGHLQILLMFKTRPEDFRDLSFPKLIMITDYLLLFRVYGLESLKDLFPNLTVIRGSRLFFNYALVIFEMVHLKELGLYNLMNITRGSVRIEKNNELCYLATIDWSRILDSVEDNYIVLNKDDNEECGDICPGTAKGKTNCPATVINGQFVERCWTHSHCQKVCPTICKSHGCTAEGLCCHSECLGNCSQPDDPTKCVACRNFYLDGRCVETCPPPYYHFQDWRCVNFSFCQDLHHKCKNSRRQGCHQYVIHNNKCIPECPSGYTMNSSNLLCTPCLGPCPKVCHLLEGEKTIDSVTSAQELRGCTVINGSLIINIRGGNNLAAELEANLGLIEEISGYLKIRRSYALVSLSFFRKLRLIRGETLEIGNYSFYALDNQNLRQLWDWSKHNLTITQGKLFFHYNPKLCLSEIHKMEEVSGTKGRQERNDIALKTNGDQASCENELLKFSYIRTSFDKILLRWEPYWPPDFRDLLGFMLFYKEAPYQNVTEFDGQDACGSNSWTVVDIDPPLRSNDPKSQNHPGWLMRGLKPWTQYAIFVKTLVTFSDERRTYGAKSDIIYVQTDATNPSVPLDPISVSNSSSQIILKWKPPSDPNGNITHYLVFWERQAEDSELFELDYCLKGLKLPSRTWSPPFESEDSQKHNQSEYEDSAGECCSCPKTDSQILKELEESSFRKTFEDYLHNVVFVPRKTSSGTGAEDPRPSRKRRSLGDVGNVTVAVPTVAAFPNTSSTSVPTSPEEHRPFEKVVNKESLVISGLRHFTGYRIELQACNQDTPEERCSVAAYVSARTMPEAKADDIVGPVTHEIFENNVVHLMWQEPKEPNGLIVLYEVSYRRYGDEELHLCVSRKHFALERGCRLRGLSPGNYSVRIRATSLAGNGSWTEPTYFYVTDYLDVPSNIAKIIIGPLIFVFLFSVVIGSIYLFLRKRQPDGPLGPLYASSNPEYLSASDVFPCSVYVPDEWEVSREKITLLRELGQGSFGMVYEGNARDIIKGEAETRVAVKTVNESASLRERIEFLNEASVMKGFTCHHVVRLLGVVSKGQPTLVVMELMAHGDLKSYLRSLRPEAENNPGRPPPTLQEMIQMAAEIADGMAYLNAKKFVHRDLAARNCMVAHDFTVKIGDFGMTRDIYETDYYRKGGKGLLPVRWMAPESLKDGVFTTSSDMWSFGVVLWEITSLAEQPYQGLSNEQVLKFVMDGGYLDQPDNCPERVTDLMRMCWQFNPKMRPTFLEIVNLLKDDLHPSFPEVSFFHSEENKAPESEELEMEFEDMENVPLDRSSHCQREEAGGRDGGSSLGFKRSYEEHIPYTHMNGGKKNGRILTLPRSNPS

[3] = target: JAK3 JH1 catalytic (human) (UniProt P52333)
Sequence of JAK3 JH1 catalytic (human) (P52333 whole entry, looked up): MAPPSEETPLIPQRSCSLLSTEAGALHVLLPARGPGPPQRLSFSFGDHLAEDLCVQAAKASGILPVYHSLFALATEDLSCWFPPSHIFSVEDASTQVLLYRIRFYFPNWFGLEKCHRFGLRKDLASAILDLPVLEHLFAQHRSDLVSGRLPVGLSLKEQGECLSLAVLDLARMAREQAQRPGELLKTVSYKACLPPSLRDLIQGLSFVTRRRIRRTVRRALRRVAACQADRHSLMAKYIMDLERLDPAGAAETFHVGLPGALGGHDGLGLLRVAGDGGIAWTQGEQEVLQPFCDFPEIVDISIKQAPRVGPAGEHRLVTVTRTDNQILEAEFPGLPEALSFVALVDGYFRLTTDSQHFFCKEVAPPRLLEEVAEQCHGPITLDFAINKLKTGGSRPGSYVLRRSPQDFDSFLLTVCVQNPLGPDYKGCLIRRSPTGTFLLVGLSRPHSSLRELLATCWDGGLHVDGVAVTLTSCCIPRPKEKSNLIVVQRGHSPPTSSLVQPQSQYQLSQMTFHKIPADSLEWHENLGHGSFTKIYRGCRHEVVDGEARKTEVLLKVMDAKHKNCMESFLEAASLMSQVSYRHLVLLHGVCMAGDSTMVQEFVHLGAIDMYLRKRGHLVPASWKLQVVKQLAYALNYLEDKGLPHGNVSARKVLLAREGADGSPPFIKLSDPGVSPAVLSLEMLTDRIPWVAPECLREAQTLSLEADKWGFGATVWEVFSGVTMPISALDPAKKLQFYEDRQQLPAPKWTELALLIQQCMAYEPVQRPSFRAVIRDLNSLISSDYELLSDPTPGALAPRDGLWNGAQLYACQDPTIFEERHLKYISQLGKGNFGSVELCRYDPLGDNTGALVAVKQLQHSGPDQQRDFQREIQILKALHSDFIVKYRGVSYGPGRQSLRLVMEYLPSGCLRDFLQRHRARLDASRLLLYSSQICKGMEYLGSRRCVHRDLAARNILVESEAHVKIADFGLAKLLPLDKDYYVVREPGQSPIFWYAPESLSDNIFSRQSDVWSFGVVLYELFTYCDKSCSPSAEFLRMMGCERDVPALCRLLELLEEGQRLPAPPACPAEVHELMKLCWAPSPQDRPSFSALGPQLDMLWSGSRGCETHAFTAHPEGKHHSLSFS

MAP3K5 (human) = MAP3K5 (human) (UniProt Q99683)
MAPK4 (human) = MAPK4 (human) (UniProt P31152)
MARK2 (human) = MARK2 (human) (UniProt Q7KZI7)
MUSK (human) = MUSK (human) (UniProt O15146)
MYO3A (human) = MYO3A (human) (UniProt Q8NEV4)
NEK1 (human) = NEK1 (human) (UniProt Q96PY6)
NTRK1 (human) = NTRK1 (human) (UniProt P04629)
PRKCQ (human) = PRKCQ (human) (UniProt Q04759)
RAF1 (human) = RAF1 (human) (UniProt P04049)
Sequence of RAF1 (human) (P04049 whole entry, looked up): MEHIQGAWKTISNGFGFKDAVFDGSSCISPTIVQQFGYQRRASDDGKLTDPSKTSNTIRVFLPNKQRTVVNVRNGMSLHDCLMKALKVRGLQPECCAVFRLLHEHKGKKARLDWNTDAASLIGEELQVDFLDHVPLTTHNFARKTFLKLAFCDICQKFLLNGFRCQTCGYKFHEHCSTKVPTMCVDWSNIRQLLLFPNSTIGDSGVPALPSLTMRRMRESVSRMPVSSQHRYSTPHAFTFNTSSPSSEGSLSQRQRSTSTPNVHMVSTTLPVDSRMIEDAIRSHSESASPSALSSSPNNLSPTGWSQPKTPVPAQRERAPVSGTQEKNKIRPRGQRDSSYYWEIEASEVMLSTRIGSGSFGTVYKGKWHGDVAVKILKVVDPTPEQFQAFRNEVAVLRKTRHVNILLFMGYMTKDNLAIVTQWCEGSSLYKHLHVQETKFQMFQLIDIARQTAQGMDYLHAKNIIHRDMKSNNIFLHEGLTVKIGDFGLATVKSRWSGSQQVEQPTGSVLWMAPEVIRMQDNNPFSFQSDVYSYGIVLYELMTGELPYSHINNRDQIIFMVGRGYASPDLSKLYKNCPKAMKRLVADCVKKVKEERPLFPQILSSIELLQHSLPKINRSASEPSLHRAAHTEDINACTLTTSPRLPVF

RIOK3 (human) = RIOK3 (human) (UniProt O14730)
RIPK1 (human) = RIPK1 (human) (UniProt Q13546)
RIPK4 (human) = RIPK4 (human) (UniProt P57078)
RPS6KA6 KD2 (human) = RPS6KA6 KD2 (human) (UniProt Q9UK32)
SIK2 (human) = SIK2 (human) (UniProt Q9H0K1)
Sequence of SIK2 (human) (Q9H0K1 whole entry, looked up): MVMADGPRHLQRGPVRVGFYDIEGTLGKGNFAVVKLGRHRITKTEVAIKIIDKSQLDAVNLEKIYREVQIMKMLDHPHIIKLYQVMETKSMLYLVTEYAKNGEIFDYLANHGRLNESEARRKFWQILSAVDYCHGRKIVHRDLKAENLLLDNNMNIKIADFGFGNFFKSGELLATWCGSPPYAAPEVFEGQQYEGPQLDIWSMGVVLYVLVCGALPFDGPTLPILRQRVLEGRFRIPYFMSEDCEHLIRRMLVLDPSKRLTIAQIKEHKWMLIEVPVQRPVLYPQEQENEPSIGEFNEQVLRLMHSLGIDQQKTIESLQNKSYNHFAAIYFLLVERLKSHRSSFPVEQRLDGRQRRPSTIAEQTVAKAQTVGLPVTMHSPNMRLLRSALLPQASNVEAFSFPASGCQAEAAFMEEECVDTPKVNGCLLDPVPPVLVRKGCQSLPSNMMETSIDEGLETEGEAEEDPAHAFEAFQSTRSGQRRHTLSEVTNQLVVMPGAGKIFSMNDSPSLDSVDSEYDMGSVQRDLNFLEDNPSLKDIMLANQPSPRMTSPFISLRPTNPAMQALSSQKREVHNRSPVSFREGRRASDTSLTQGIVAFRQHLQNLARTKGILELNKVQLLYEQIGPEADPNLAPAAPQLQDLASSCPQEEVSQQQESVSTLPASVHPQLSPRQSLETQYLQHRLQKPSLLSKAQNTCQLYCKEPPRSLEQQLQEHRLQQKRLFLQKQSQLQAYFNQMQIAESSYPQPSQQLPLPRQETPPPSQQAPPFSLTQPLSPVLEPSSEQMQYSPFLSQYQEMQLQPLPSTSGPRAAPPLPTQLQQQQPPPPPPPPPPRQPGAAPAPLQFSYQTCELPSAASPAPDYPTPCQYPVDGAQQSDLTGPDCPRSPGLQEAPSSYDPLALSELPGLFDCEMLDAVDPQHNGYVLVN

SLK (human) = SLK (human) (UniProt Q9H2G2)
STK10 (human) = STK10 (human) (UniProt O94804)
STK35 (human) = STK35 (human) (UniProt Q8TDR2)
STK38L (human) = STK38L (human) (UniProt Q9Y2H1)
TLK1 (human) = TLK1 (human) (UniProt Q9UKI8)
TYRO3 (human) = TYRO3 (human) (UniProt Q06418)
WEE1 (human) = WEE1 (human) (UniProt P30291)

kinase still bound, per cent of control [1] [%]	kinase still bound, per cent of control (ABL2 (human)) [%]	kinase still bound, per cent of control (AKT2 (human)) [%]	kinase still bound, per cent of control (ALK (human)) [%]	kinase still bound, per cent of control (AURKC (human)) [%]	kinase still bound, per cent of control (CAMK2G (human)) [%]	kinase still bound, per cent of control (CDK18 (human)) [%]	kinase still bound, per cent of control (CIT (human)) [%]	kinase still bound, per cent of control (CLK1 (human)) [%]	kinase still bound, per cent of control (CLK3 (human)) [%]	kinase still bound, per cent of control (CSF1R (human)) [%]	kinase still bound, per cent of control (DCLK2 (human)) [%]	kinase still bound, per cent of control (EPHA8 (human)) [%]	kinase still bound, per cent of control (EPHB3 (human)) [%]	kinase still bound, per cent of control [2] [%]	kinase still bound, per cent of control (FRK (human)) [%]	kinase still bound, per cent of control (HIPK1 (human)) [%]	kinase still bound, per cent of control (INSR (human)) [%]	kinase still bound, per cent of control [3] [%]	kinase still bound, per cent of control (MAP3K5 (human)) [%]	SMILES	other results
100	100	100	100	100	100	100	100	100	100	100	100	100	100	100	100	100	100	100	100	COc1cc(C(=O)NC2CCN(C)CC2)ccc1Nc1ncc2c(n1)N(C1CCCC1)CCC(=O)N2C(C)C	kinase still bound, per cent of control (MAPK4 (human)): 100%; kinase still bound, per cent of control (MARK2 (human)): 100%; kinase still bound, per cent of control (MUSK (human)): 100%; kinase still bound, per cent of control (MYO3A (human)): 100%; kinase still bound, per cent of control (NEK1 (human)): 100%; kinase still bound, per cent of control (NTRK1 (human)): 100%; kinase still bound, per cent of control (PRKCQ (human)): 100%; kinase still bound, per cent of control (RAF1 (human)): 100%; kinase still bound, per cent of control (RIOK3 (human)): 100%; kinase still bound, per cent of control (RIPK1 (human)): 100%; kinase still bound, per cent of control (RIPK4 (human)): 100%; kinase still bound, per cent of control (RPS6KA6 KD2 (human)): 100%; kinase still bound, per cent of control (SIK2 (human)): 100%; kinase still bound, per cent of control (SLK (human)): 100%; kinase still bound, per cent of control (STK10 (human)): 100%; kinase still bound, per cent of control (STK35 (human)): 100%; kinase still bound, per cent of control (STK38L (human)): 100%; kinase still bound, per cent of control (TLK1 (human)): 100%; kinase still bound, per cent of control (TYRO3 (human)): 100%; kinase still bound, per cent of control (WEE1 (human)): 100%
100	100	100	100	100	100	100	100	2.2	100	100	100	100	100	100	100	4.6	100	100	100	OCCCNc1cc(-c2ccnc(Nc3cccc(Cl)c3)n2)ccn1	kinase still bound, per cent of control (MAPK4 (human)): 100%; kinase still bound, per cent of control (MARK2 (human)): 100%; kinase still bound, per cent of control (MUSK (human)): 100%; kinase still bound, per cent of control (MYO3A (human)): 100%; kinase still bound, per cent of control (NEK1 (human)): 100%; kinase still bound, per cent of control (NTRK1 (human)): 100%; kinase still bound, per cent of control (PRKCQ (human)): 100%; kinase still bound, per cent of control (RAF1 (human)): 100%; kinase still bound, per cent of control (RIOK3 (human)): 100%; kinase still bound, per cent of control (RIPK1 (human)): 100%; kinase still bound, per cent of control (RIPK4 (human)): 100%; kinase still bound, per cent of control (RPS6KA6 KD2 (human)): 100%; kinase still bound, per cent of control (SIK2 (human)): 100%; kinase still bound, per cent of control (SLK (human)): 100%; kinase still bound, per cent of control (STK10 (human)): 100%; kinase still bound, per cent of control (STK35 (human)): 100%; kinase still bound, per cent of control (STK38L (human)): 100%; kinase still bound, per cent of control (TLK1 (human)): 100%; kinase still bound, per cent of control (TYRO3 (human)): 100%; kinase still bound, per cent of control (WEE1 (human)): 100%

SMILES	kinase still bound, per cent of control [1] [%]	kinase still bound, per cent of control (ABL2 (human)) [%]	kinase still bound, per cent of control (AKT2 (human)) [%]	kinase still bound, per cent of control (ALK (human)) [%]	kinase still bound, per cent of control (AURKC (human)) [%]	kinase still bound, per cent of control (CAMK2G (human)) [%]	kinase still bound, per cent of control (CDK18 (human)) [%]	kinase still bound, per cent of control (CIT (human)) [%]	kinase still bound, per cent of control (CLK1 (human)) [%]	kinase still bound, per cent of control (CLK3 (human)) [%]	kinase still bound, per cent of control (CSF1R (human)) [%]	kinase still bound, per cent of control (DCLK2 (human)) [%]	kinase still bound, per cent of control (EPHA8 (human)) [%]	kinase still bound, per cent of control (EPHB3 (human)) [%]	kinase still bound, per cent of control [2] [%]	kinase still bound, per cent of control (FRK (human)) [%]	kinase still bound, per cent of control (HIPK1 (human)) [%]	kinase still bound, per cent of control (INSR (human)) [%]	kinase still bound, per cent of control [3] [%]	kinase still bound, per cent of control (MAP3K5 (human)) [%]	other results
C=CC(=O)Nc1cc(NC(=O)c2ccc(C)c(NC(=O)c3ccno3)c2)cc(C(F)(F)F)c1	51	32	100	95	100	89	91	97	93	100	38	100	3.6	99	82	12	97	92	100	100	kinase still bound, per cent of control (MAPK4 (human)): 100%; kinase still bound, per cent of control (MARK2 (human)): 100%; kinase still bound, per cent of control (MUSK (human)): 100%; kinase still bound, per cent of control (MYO3A (human)): 93%; kinase still bound, per cent of control (NEK1 (human)): 100%; kinase still bound, per cent of control (NTRK1 (human)): 87%; kinase still bound, per cent of control (PRKCQ (human)): 100%; kinase still bound, per cent of control (RAF1 (human)): 40%; kinase still bound, per cent of control (RIOK3 (human)): 76%; kinase still bound, per cent of control (RIPK1 (human)): 100%; kinase still bound, per cent of control (RIPK4 (human)): 86%; kinase still bound, per cent of control (RPS6KA6 KD2 (human)): 79%; kinase still bound, per cent of control (SIK2 (human)): 100%; kinase still bound, per cent of control (SLK (human)): 100%; kinase still bound, per cent of control (STK10 (human)): 100%; kinase still bound, per cent of control (STK35 (human)): 100%; kinase still bound, per cent of control (STK38L (human)): 88%; kinase still bound, per cent of control (TLK1 (human)): 100%; kinase still bound, per cent of control (TYRO3 (human)): 93%; kinase still bound, per cent of control (WEE1 (human)): 100%
